This passage reports EC50 and IC50 results from patent publication US20260364080A1, “PYRAZOLO-PYRIMIDINONE COMPOUNDS FOR USE IN METHODS OF INHIBITING WEE1 A KINASE” (Acrivon Therapeutics, Inc., priority 2023, published 2026).

Experiment [1] concerns the target T1, Myt1 kinase (CDK1 Thr14 phosphorylation in ACHN renal cell carcinoma cells) (Homo sapiens, UniProt Q99640).
T1 construct: pCDK1 Thr14 AlphaLISA read-out
T1 sequence (Q99640 1-499): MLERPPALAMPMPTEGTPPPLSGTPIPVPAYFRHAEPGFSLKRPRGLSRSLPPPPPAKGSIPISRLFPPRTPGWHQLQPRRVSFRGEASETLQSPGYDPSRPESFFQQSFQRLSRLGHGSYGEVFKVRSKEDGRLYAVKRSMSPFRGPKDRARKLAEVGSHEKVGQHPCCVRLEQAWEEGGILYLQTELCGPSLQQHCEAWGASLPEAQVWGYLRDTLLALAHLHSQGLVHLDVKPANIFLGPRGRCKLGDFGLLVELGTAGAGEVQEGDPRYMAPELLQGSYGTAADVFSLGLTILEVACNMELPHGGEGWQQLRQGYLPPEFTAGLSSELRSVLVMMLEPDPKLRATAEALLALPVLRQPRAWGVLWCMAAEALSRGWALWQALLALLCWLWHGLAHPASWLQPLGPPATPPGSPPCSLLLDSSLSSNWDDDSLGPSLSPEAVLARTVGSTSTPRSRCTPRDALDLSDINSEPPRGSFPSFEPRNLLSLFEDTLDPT
The experiment can be described thus: AlphaLISA assay, Myt1 kinase target engagement (phospho-CDK1 Thr14) in ACHN cells. It is filed as cell-based. To be noted: ACHN cells (marked *); 4 h treatment. The protocol: Each of an ACHN renal cell carcinoma cell line (ATCC) and a DAOY medulloblastoma cell line, and an A427 lung cancer line were cultured in Minimum Essential Medium Eagle supplemented with 10% fetal calf serum (Sigma), 1% Penicillin-Streptomycin and 10 mM HEPES buffer (HyClone). Cell cultures were kept in a humidified incubator at 37 °C and 5% CO2. Cells were routinely tested for Mycoplasma contamination.
For target engagement assessment of Myt1 kinase inhibition, quantification of Cdk1 phosphorylated on threonine 14 was detected using the AlphaLISA® SureFire® Ultra™ Human Phospho-CDK1 (Thr14) assay (Perkin Elmer). DAOY or ACHN cells were seeded into tissue culture treated 96-well plates (VWR) to a density of 10,000 or 20,000 cells per well respectively. 24 h post seeding cells were treated for 4 h with compounds at concentrations ranging from 7 to 5000 nM. Cells were washed with PBS and lysed in 50 μl AlphaLISA lysis buffer before freezing at −80 C. Ten ul of the lysate was transferred to 384 well plates and incubated with AlphaLISA donor and acceptor beads according to the manufacturer's instructions. Dose response curves and EC50 values were calculated and visualized using GraphPad Prism version 9. Target engagement for Myt1 kinase can also be measured using the same AlphaLISA assay in OVCAR3 cells, an ovarian cancer cell line. NIH:OVCAR-3 (OVCAR3) cells are cultured in RPMI-1640 medium supplemented with 0.01 mg/ml insulin, 20% FBS, 1% Penicillin-Streptomycin and 10 mM HEPES buffer. 14,000 cells per well are seeded into 96 well tissue culture plates in full medium. Twenty-four hours post seeding, cells are treated with compound for 4 hours at concentrations ranging from 0.017 nM to 1000 nM.

Experiment [2] has as its target T2, recombinant human Wee1A kinase (Homo sapiens, UniProt P30291).
T2 construct: full length Wee1 kinase was expressed by baculovirus in insect cells; purchased Invitrogen PV3817; host or cells: insect cells (baculovirus)
Briefly: Wee1A kinase binding assay (LanthaScreen Eu time-resolved FRET). The note with it: 30 nM tracer 178, 5 nM Wee1A kinase, 2 nM Eu-labeled antibody; 60 minutes at room temperature; read-out: Wee1A kinase Binding IC50. The gist of the method:
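Full-length, baculovirus-expressed GST-tagged Wee1A (5 nM) was mixed with 2 nM Eu-anti-GST antibody, 30 nM kinase tracer 178 and compound (1% DMSO). Buffer was 50 mM HEPES pH 7.5, 10 mM MgCl2, 1 mM EGTA, 0.01% Brij-35, incubated 60 min at room temperature. TR-FRET 665/615 nm emission ratios from duplicates were curve-fitted.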

In the next experiment the test system is ACHN cells. Briefly: Cell Titer Glo viability assay, ACHN cells. In kind it is cell-based. The note with it: Homo sapiens, 144 h, absolute EC50. The gist of the method: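 Cells grown in MEM with 10% FCS were seeded at 500 (A427), 400 (ACHN) or 250 (DAOY) per well and treated the next day with compound at 17 to 10 000 nM. Viability relative to untreated control was read at 144 h by CellTiter-Glo 2.0.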

Experiment [3] addresses T3, Myt1 kinase (recombinant PMYT-1) (Homo sapiens, UniProt Q99640).
T3 construct: full length PMYT-1 was expressed by baculovirus in insect cells; purchased Invitrogen A30984; host or cells: insect cells (baculovirus)
T3 sequence (Q99640 1-499): T1 sequence (Q99640 1-499)
The experiment can be described thus: Myt1 kinase binding assay (LanthaScreen Eu Kinase Binding Assay). The note with it: 3 nM tracer 178, 2.5 nM PMYT-1, 1 nM Eu-labeled antibody; read-out: Myt1 kinase Binding IC50. Put shortly:
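Compound binding to Myt1 kinase was assessed using the LanthaScreen Eu Kinase Binding Assay. This europium-based binding format was applied to quantify how strongly each compound bound to the Myt1 enzyme, and the binding affinity was reported for each compound as an IC50 value.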

Experiment [4] deals with T4, Wee1A kinase (CDK1 Tyr15 phosphorylation in ACHN renal cell carcinoma cells) (Homo sapiens, UniProt P30291).
T4 construct: pCDK1 Tyr15 immunofluorescence read-out
The experiment can be described thus: High-content imaging of pCdk1 Y15, Wee1A kinase target engagement in ACHN cells. It is filed as cell-based. The note with it: 4 h treatment, nuclear positivity for pCdk1 Y15 vs DMSO control, read-out: CDK1 Tyr15 Phosphorylation EC50. The gist of the method:
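EC50 values come from the per-well fraction of cells with nuclear pCdk1 Y15 staining, normalised to DMSO control, by automated immunofluorescence imaging. Cells were ACHN renal carcinoma, treated 4 h with compound at 7–5,000 nM or 0.3–200 nM.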

T4 sequence (P30291 whole entry): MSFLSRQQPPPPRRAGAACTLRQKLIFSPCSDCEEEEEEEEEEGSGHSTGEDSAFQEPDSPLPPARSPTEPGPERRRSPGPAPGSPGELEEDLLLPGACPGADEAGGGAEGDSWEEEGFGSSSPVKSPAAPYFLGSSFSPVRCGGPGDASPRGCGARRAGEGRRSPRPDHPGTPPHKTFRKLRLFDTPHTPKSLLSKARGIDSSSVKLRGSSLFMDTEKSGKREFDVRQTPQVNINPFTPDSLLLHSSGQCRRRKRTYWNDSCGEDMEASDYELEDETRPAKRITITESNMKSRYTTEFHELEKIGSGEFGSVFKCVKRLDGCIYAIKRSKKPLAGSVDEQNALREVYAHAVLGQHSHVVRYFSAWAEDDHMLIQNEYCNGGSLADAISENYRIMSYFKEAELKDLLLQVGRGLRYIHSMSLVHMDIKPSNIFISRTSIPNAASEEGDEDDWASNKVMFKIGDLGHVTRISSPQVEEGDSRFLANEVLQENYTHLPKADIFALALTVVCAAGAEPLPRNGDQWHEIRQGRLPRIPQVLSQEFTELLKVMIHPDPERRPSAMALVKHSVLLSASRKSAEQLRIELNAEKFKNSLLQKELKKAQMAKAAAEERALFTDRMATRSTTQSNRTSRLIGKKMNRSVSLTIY
T2 sequence (P30291 whole entry): as above

Take `[2H]C([2H])([2H])N1CCC(Oc2cccc(-n3c4nc(Nc5ccc6c(cnn6C)c5)ncc4c(=O)n3CC=C)n2)CC1` [Compound 281, 2-allyl-6-((1-methyl-1H-indazol-5-yl)amino)-1-(6-((1-(methyl-d3)piperidin-4-yl)oxy)pyridin-2-yl)-1,2-dihydro-3H-pyrazolo[3,4-d]pyrimidin-3-one]: the EC50 in experiment [1] was less than 200 nM; with ACHN cells, not above 100 nM; in experiment [4], less than 100 nM. In addition, the results for the IC50 in experiment [2] and in experiment [3] were less than 10 nM and 20 to 100 nM, respectively.
`C=CCn1c(=O)c2cnc(Nc3ccc4nn(CC)cc4c3)nc2n1-c1cccc(OC2CCN(C)CC2)n1` [Compound 282, 2-allyl-6-((2-ethyl-2H-indazol-5-yl)amino)-1-(6-((1-methylpiperidin-4-yl)oxy)pyridin-2-yl)-1,2-dihydro-3H-pyrazolo[3,4-d]pyrimidin-3-one]: the EC50 in experiment [1] was less than 200 nM; in the experiment on ACHN cells, not above 100 nM; in experiment [4], less than 100 nM. The figures for the half-inhibitory concentration (IC50) in experiment [2] and in experiment [3] were less than 10 nM and less than 20 nM, respectively.
The corresponding values for `C=CCn1c(=O)c2cnc(Nc3ccc4c(cnn4C)c3)nc2n1-c1cccc(OC2CCN(CCC)CC2)n1` [Compound 322, 2-allyl-6-(1-methyl-1H-indazol-5-ylamino)-1-[6-(1-propyl-4-piperidyloxy)-2-pyridyl]-1,2-dihydro-3H-1,2,5,7-tetraazainden-3-one] are 200 to 500 nM, not above 100 nM, less than 100 nM, less than 10 nM and 20 to 100 nM.
As for `[2H]C([2H])([2H])c1cccc(Nc2ncc3c(=O)n(CC=C)n(-c4cccc(OC5CCN(C)CC5)n4)c3n2)c1` [Compound 333, 2-allyl-6-((3-(methyl-d3)phenyl)amino)-1-(6-((1-methylpiperidin-4-yl)oxy)pyridin-2-yl)-1,2-dihydro-3H-pyrazolo[3,4-d]pyrimidin-3-one], the EC50 in experiment [1] is 200 to 500 nM; with ACHN cells, not above 100 nM; in experiment [4], less than 100 nM. Further, the figures for the IC50 in experiment [2] and in experiment [3] were less than 10 nM and 20 to 100 nM, respectively.
`C=CCn1c(=O)c2cnc(Nc3ccc4c(c3)c(C)nn4C)nc2n1-c1cccc(OC2CCN(C)CC2)n1` [Compound 346, 2-allyl-6-((1,3-dimethyl-1H-indazol-5-yl)amino)-1-(6-((1-methylpiperidin-4-yl)oxy)pyridin-2-yl)-1,2-dihydro-3H-pyrazolo[3,4-d]pyrimidin-3-one]: the 50% effective concentration (EC50) in experiment [1] was 200 to 500 nM; with ACHN cells, not above 100 nM; in experiment [4] it was less than 100 nM. Moreover, the 50% inhibitory concentration (IC50) was less than 10 nM in experiment [2] and 20 to 100 nM in experiment [3].
Take `CN1CCC(Oc2cccc(-n3c4nc(Nc5ccc6c(ccn6C)c5)ncc4c(=O)n3C)n2)CC1` [Compound 360, 2-methyl-6-((1-methyl-1H-indol-5-yl)amino)-1-(6-((1-methylpiperidin-4-yl)oxy)pyridin-2-yl)-1,2-dihydro-3H-pyrazolo[3,4-d]pyrimidin-3-one]: the values for the half-maximal effective concentration (EC50) (in experiment [1]; with ACHN cells; in experiment [4]) were 500 to 1000 nM, not above 100 nM and less than 100 nM, respectively. Besides, the IC50 was less than 10 nM in experiment [2] and 20 to 100 nM in experiment [3].
The like results for `C=CCn1c(=O)c2cnc(Nc3ccc4c(ccn4C(C)=O)c3)nc2n1-c1cccc(OC2CCNCC2)n1` [Compound 384] were, in that order, more than 1000 nM, not above 100 nM, less than 100 nM, less than 10 nM and 20 to 100 nM.
As for `C=CCn1c(=O)c2cnc(Nc3ccc4c(cnn4CCC)c3)nc2n1-c1cccc(OC2CCN(C)CC2)n1` [Compound 385, 2-allyl-1-[6-(1-methyl-4-piperidyloxy)-2-pyridyl]-6-(1-propyl-1H-indazol-5-ylamino)-1,2-dihydro-3H-1,2,5,7-tetraazainden-3-one], the results for the concentration for a half-maximal effect (EC50) (in experiment [1]; in the experiment with ACHN cells; in experiment [4]) were less than 200 nM, not above 100 nM and less than 100 nM, respectively. For the same molecule, the 50% inhibitory concentration (IC50) was less than 10 nM in experiment [2] and less than 20 nM in experiment [3].
The like results for `C=CCn1c(=O)c2cnc(Nc3ccc4c(cnn4C4CC4)c3)nc2n1-c1cccc(OC2CCN(C)CC2)n1` [Compound 386, 2-allyl-6-((1-cyclopropyl-1H-indazol-5-yl)amino)-1-(6-((1-methylpiperidin-4-yl)oxy)pyridin-2-yl)-1,2-dihydro-3H-pyrazolo[3,4-d]pyrimidin-3-one] were, in that order, less than 200 nM, not above 100 nM, less than 100 nM, less than 10 nM and less than 20 nM.
Consider `C=CCn1c(=O)c2cnc(Nc3ccc4c(cnn4CCCF)c3)nc2n1-c1cccc(OC2CCN(C)CC2)n1` [Compound 387, 2-allyl-6-((1-(3-fluoropropyl)-1H-indazol-5-yl)amino)-1-(6-((1-methylpiperidin-4-yl)oxy)pyridin-2-yl)-1,2-dihydro-3H-pyrazolo[3,4-d]pyrimidin-3-one], for which the concentration for a half-maximal effect (EC50) is less than 200 nM in experiment [1], not above 100 nM in the experiment with ACHN cells and less than 100 nM in experiment [4]. Moreover, the IC50 in experiment [2] is less than 10 nM; in experiment [3], 20 to 100 nM.
As to `C=CCn1c(=O)c2cnc(Nc3ccc(OCCF)cc3)nc2n1-c1ccnc(OC2CCN(C)CC2)n1` [Compound 388, 2-allyl-6-((4-(2-fluoroethoxy)phenyl)amino)-1-(2-((1-methylpiperidin-4-yl)oxy)pyrimidin-4-yl)-1,2-dihydro-3H-pyrazolo[3,4-d]pyrimidin-3-one], the concentration for a half-maximal effect (EC50) was less than 200 nM in experiment [1], not above 100 nM with ACHN cells and less than 100 nM in experiment [4]. Also, the IC50 in experiment [2] was less than 10 nM; in experiment [3], 20 to 100 nM.
Take `C=CCn1c(=O)c2cnc(Nc3ccc4c(cnn4CCC)c3)nc2n1-c1cccc(OC2CCNCC2)n1` [Compound 390, 2-allyl-1-[6-(4-piperidyloxy)-2-pyridyl]-6-(1-propyl-1H-indazol-5-ylamino)-1,2-dihydro-3H-1,2,5,7-tetraazainden-3-one]: the EC50 was less than 200 nM in experiment [1], not above 100 nM in the experiment with ACHN cells and less than 100 nM in experiment [4]. Moreover, the results for the half-maximal inhibitory concentration (IC50) in experiment [2] and in experiment [3] were less than 10 nM and less than 20 nM, respectively.
